Where no end group is shown, it is not given here.
What was measured:
[1] = test system: pdk1 knockout mice; assay: Genetic mouse model of heart failure (inducible cardiac specific PDK1 knockout); type: in vivo; conditions: for cardiac (left ventricular) function, echocardiography: PDK1 knockout mice after tamoxifen, cell penetrating peptides
Protocol: (a, top) Design of study. Echo, echocardiography. (a, bottom) Fractional shortening (%) as determined by echocardiography in pdk1 knockout mice treated with mimetic peptide (TAT-MP) or scramble (TAT-scramble). (b) Western blotting analysis of Cavα1.2 and GAPDH protein levels of total protein lysates from left ventricular homogenates. Protein levels were normalized to GAPDH. (n=4) MP=SEQ ID NO:3, scramble=SEQ ID NO:11. Tamoxifen (TAM) and peptide was injected daily as indicated. Protein levels were normalized to GAPDH.
To explore the in vivo therapeutic potential, MP was used in an inducible and cardiac specific knockout of the phosphoinositide-dependent kinase 1 (PDK1), the upstream activator of all three Akt isoforms. […] We then treated the mice with either cell penetrating MP or scramble peptides and followed the phenotype for the following days. […] MP=SEQ ID NO: 3; TAT-scramble=scramble=SEQ ID NO:11.

[2] = test system: Cavα1.2; assay: Western blot of Cavα1.2 protein levels in iPSC-CMs subjected to an Akt inhibitor; type: cell-based, human; conditions: iPSC-CMs co-treated with Akt inhibitor
Excerpt: (a) Western blotting analysis of Cavα1.2 and GAPDH protein levels of total protein lysates from cardiomyocytes (CMs) differentiated from induced pluripotent stem cells (iPSCs) and previously derived from skin fibroblasts of healthy individuals. (n=4) Cells were untreated or treated with an Akt-inhibitor. MP=SEQ ID NO:3, scramble=SEQ ID NO:11.
(§1) Based on this, we next performed functional analyses and examined the iPSC-CM beating clusters (BCs) for Ca^2+ handling properties. […] On the other hand, no effects were observed when BCs were co-treated with scramble.

[3] = test system: iPSC-CM beating clusters; assay: Ca2+ handling in iPSC-CM beating clusters treated with Akt-inhibitor; type: cell-based, human; conditions: iPSC-CM beating clusters co-treated with Akt-inhibitor
Excerpt: as §1

[4] = test system: Cavα1.2; assay: Western blot of Cavα1.2 protein levels in HEK293 cells transfected with peptides, serum removal; type: cell-based; conditions: specific mutations within either the MP or Cavα1.2
Excerpt: (§2) a) Western blotting analysis of Cavα1.2 and GAPDH protein levels of total protein lysates; b) Intracellular Ca^2+fluxes; (c) Molecular modeling and docking of a peptide (SEQ ID NO:2, dark grey) to TID region (SEQ ID NO:10, light grey) of Cavβ2.; (d) Western blotting analysis of Cavα1.2 and GAPDH protein levels of total protein lysates; (e) Confocal analyses of adult cardiomyocytes treated with TAT-MP- and TAT-scramble-and stained with di 8-ANEPPS dye. MP=SEQ ID NO:3, scramble=SEQ ID NO:11. (f) Western blotting analysis of Cavα1.2 and GAPDH protein levels of total protein lysates from HEK293 cells treated with increasing doses of MP; (g) Ca^2+ current measurements in tSA-201 cells previously transfected. For Western blotting analyses, HEK293 or tSA-201 cells transfected or treated as indicated. Protein levels were normalized to GAPDH. (n=4). Data are shown as the means±SEM; *, P<0.05, **, P<0.005; ***, P<0.001.
Based on the evidence shown in example 1, we next investigated whether mimetic peptides (MPs) might recapitulate the mechanism by which LTCCs are protected from protein degradation by binding to the TID domain. […]

[5] = molecular target: T1, LTCC (Homo sapiens, UniProt Q08289); assay: Ca2+ current measurements in tSA-201 cells, serum removal; type: cell-based
T1 construct: expressed in transfected cells; host or cells: tSA-201
T1 sequence (Q08289 whole entry): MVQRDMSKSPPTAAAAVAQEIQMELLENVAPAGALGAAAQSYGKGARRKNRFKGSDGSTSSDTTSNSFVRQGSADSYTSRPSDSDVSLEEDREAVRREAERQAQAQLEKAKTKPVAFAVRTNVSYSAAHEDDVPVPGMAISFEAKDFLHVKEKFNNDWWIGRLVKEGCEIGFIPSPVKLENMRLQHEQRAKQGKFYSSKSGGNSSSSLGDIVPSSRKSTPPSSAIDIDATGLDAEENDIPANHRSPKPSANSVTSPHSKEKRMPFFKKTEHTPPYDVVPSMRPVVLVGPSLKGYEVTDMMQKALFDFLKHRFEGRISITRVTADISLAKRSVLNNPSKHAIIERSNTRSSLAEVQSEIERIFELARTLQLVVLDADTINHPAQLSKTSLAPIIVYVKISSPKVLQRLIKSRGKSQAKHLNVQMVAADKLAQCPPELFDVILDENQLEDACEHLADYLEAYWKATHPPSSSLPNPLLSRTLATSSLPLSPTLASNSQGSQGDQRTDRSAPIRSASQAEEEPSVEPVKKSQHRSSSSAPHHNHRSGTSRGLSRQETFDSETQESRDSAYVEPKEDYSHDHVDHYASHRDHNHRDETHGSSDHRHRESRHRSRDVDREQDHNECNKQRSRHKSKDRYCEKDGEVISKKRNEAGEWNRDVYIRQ
T1 sequence (Q13936 whole entry partner): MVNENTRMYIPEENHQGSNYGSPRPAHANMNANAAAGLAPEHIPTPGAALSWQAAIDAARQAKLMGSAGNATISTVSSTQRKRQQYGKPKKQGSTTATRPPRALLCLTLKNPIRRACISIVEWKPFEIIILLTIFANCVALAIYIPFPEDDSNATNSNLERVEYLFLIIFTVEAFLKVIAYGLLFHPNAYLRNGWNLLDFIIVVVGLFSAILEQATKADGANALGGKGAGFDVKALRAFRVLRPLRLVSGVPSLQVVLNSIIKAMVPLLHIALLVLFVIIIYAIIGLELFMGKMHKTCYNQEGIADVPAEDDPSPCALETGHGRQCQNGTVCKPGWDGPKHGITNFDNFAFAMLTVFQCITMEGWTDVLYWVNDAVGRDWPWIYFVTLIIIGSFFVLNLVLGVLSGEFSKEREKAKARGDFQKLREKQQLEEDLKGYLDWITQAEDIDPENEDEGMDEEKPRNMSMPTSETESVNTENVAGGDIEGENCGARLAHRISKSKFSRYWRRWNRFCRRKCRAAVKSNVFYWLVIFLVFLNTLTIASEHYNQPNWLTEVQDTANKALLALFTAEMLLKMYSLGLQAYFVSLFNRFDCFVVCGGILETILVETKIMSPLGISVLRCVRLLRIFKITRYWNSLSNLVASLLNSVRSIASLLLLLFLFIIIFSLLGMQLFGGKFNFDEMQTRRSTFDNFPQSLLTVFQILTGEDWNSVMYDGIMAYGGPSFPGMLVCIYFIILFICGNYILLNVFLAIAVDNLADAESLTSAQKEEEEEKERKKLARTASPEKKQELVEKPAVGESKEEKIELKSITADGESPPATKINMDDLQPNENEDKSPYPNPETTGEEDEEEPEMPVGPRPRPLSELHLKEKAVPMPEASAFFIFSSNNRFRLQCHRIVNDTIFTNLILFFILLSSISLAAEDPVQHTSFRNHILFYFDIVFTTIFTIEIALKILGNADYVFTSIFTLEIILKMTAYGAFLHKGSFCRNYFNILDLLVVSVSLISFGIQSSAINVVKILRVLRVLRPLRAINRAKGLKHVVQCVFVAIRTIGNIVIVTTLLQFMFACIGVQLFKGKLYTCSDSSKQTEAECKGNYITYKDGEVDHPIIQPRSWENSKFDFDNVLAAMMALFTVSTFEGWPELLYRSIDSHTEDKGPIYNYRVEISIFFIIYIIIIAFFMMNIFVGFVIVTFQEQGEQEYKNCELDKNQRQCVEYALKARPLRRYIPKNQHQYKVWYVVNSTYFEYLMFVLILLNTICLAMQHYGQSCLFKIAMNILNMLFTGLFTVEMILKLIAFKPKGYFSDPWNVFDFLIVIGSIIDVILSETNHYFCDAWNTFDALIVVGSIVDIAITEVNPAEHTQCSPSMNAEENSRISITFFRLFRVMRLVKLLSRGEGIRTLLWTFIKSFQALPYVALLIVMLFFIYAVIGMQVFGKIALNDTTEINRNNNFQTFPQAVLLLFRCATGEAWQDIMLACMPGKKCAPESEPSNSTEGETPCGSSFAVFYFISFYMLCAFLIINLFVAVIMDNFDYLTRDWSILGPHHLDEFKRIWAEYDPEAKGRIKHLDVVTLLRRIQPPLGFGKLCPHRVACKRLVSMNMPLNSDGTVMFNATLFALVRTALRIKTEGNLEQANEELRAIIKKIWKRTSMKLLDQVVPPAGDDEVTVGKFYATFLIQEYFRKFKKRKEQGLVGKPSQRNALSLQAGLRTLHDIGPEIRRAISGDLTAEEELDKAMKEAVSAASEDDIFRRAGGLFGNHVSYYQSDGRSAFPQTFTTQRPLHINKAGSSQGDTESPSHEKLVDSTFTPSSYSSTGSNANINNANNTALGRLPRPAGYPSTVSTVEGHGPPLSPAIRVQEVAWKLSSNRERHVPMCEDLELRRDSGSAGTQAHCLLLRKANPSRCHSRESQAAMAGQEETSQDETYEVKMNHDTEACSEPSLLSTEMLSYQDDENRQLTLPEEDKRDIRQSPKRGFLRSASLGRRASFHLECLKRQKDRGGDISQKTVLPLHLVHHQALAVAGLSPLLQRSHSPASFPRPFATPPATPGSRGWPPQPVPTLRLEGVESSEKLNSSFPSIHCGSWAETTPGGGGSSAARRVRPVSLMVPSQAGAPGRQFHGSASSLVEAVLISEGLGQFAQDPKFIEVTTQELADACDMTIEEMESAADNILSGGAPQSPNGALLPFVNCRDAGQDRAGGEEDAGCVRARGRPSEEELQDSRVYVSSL
Excerpt: as §2
(§3) To facilitate the intracellular uptake, a cell-penetrating peptide (CPP) was conjugated to the MP (SEQ ID NO: 3). […] Thus, the trans-activating transcriptional activator (TAT) from Human Immunodeficiency Virus 1 (HIV-1) was used. […] TAT-MP=SEQ ID NO: 3; TAT-scramble=scramble=SEQ ID NO:11.

[6] = test system: LTCCs; assay: Confocal analysis of co-localization with LTCCs in isolated adult cardiomyocytes; type: cell-based
Excerpt: as §2, §3

[7] = test system: Cavα1.2; assay: Western blot of Cavα1.2 protein degradation in peptide-treated cells, serum removal; type: cell-based
Excerpt: as §2, §3

DQRPDREAPRS [MP]
cardiac (left ventricular) function, echocardiography [1]: significant attenuation of the impairment of cardiac function
LTCC protein levels ([1]; left ventricular homogenates of PDK1 knockout mice): restoration of LTCC protein levels
downregulation of Cavα1.2 protein levels [2]: prevented
slowing (delay) of Ca2+ transient development [3]: sufficient for reducing this delay
protective effect on Cavα1.2 when mutations abolish the predicted MP-TID interaction [4]: completely lost

DQPPSRRDERA [scramble control peptide]
Ca2+ current [5]: none of these effects were observed
cardiac (left ventricular) function, echocardiography [1]: progressive impairment of left ventricular function
co-localization with LTCCs [6]: none of these effects were observed
protection of Cavα1.2 from protein degradation [7]: none of these effects were observed
downregulation of Cavα1.2 protein levels [2]: no rescuing effects
slowing (delay) of Ca2+ transient development [3]: no effects
